{"source": "patent US20210371782A1", "about": "“METHODS FOR OPTICAL MICROPATTERNING OF HYDROGELS AND USES THEREOF” (President and Fellows of Harvard College, priority 2016, published 2021)", "experiment": "Solubility in water of riboflavin types", "type": "physicochemical", "details": "compared with other types of riboflavin"}
{"compound": "Cc1cc2nc3c(=O)[nH]c(=O)nc-3n(C[C@H](O)[C@H](O)[C@H](O)COP(=O)(O)O)c2cc1C", "note": "[riboflavin 5′ phosphate]", "values": [{"measurement": "solubility in water", "result": "most soluble in water"}]}
